Data taken from PubChem BioAssay (NCI).
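Each compound was tested at five concentrations against cells in 96-well plates for 48 hours. Here, GI50 denotes the concentration required for 50% inhibition of growth. The concentration for full growth arrest is given as TGI.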

How the values were obtained:
Assay in all cases: DTP human tumour cell line panel, 48 h
UO-31 renal = test system: UO-31 renal
COLO 205 colon = test system: COLO 205 colon
CCRF-CEM leukemia = test system: CCRF-CEM leukemia
OVCAR-8 ovarian = test system: OVCAR-8 ovarian
HCC-2998 colon = test system: HCC-2998 colon
HT29 colon = test system: HT29 colon
OVCAR-4 ovarian = test system: OVCAR-4 ovarian
ACHN renal = test system: ACHN renal
NCI-H460 lung = test system: NCI-H460 lung
A549 NSCLC = test system: A549 NSCLC

| Structure (SMILES) | TGI (UO-31 renal) [µM] | TGI (COLO 205 colon) [µM] | TGI (CCRF-CEM leukemia) [µM] | TGI (OVCAR-8 ovarian) [µM] | TGI (HCC-2998 colon) [µM] | TGI (HT29 colon) [µM] | TGI (OVCAR-4 ovarian) [µM] | TGI (ACHN renal) [µM] | TGI (NCI-H460 lung) [µM] | TGI (A549 NSCLC) [µM] | GI50 (UO-31 renal) [µM] | GI50 (COLO 205 colon) [µM] | GI50 (CCRF-CEM leukemia) [µM] | GI50 (OVCAR-8 ovarian) [µM] | GI50 (HCC-2998 colon) [µM] | GI50 (HT29 colon) [µM] | GI50 (OVCAR-4 ovarian) [µM] | GI50 (ACHN renal) [µM] | GI50 (NCI-H460 lung) [µM] | GI50 (A549 NSCLC) [µM] |
| --- | --- | --- | --- | --- | --- | --- | --- | --- | --- | --- | --- | --- | --- | --- | --- | --- | --- | --- | --- | --- |
| COC(=O)CCC(NC(=S)N/N=C(\C)c1ccccn1)C(=O)OC (stereo not drawn) | > 100 | > 100 | > 100 | > 100 | > 100 | > 100 | > 100 | > 100 | > 100 | > 100 |  |  |  |  |  |  |  |  |  |  |
| C=C1C(=O)OC2CCCCC3OC3C12 (stereo not drawn) | 28.8 | 11.5 | 20.2 | 32.4 | 23.9 | 32.2 | 28.7 | 23 | 28.3 | 40.2 |  |  |  |  |  |  |  |  |  |  |
| COC(=O)C(C(=O)C(=O)Nc1cccc(O)c1)c1nc2ccc(Cl)cc2[nH]c1=O (stereo not drawn) | > 100 | > 100 | > 100 | > 100 | > 100 | > 100 | > 100 | > 100 | > 100 | > 100 |  |  |  |  |  |  |  |  |  |  |
| CCCc1cc(=O)oc2c(C(=O)CC(C)C)c(O)c(CC=C(C)C)c(O)c12 | > 50 | 21.5 | > 50 | > 50 | > 50 | > 50 | > 50 | 47.1 | > 50 | > 50 | 12.1 | 10.6 | 4.97 | 12 | 4.87 | 15.1 | 10.7 | 7.53 | 8.03 | 11.4 |
| CN(C)CC(C(=O)c1ccccc1)c1ccccc1 (stereo not drawn) | 3.02 | 3.33 | 10.9 | 6.56 | 16.4 | 2.15 |  | 2.65 | 16 | 20.6 | 1.49 | 1.77 | 0.755 | 1.99 | 4.86 | 0.662 |  | 1.36 | 3.93 | 6.76 |
| O=C(c1cc(=O)c2ccc(O)cc2o1)c1ccc(Cl)cc1Cl | > 82.2 | > 38.3 | 39.6 | > 100 | 58.8 | > 100 | > 90.1 | > 100 | > 100 | > 100 |  |  |  |  |  |  |  |  |  |  |
| O=C1NC(=NCC(CO)c2ccccc2)S/C1=C\c1ccc2ncccc2c1 (stereo not drawn) | > 25 | > 25 | > 25 | > 25 | > 25 | > 25 | > 25 | > 25 | > 25 | > 25 | > 25 | 7.77 | 19.5 | > 25 | 24.6 | 19.7 | > 22.1 | 24.4 | > 16.1 | 16.2 |
| CCOc1ccccc1NC(=O)C(=O)CC(=O)C1=C(C)Nc2ccccc2S1 | > 100 | > 100 | > 100 | > 100 | > 100 | > 100 | > 100 | > 100 | > 100 | > 100 |  |  |  |  |  |  |  |  |  |  |
